Source: patent US5455278A (priority 1994, dated 1995)

Key:
L. monocytogenes = assay: Effect of oxygen on the inhibitory activity of falcarindiol; conditions: pH 7.5, 20° C.
Clostridium botulinum = type: cell-based; conditions: anaerobic conditions, 20° C.
[1] = system: mechanosensitive channels; conditions: giant spheroplasts of E. coli, patch clamp
Escherichia coli = assay: Inhibitory effect of falcarindiol on E. coli (optical density at 600nm, aerobic); type: cell-based; conditions: aerobic conditions, 20° C.
[2] = Inactivation of falcarindiol by heating; type: physicochemical
[3] = mice; cited from earlier work
Salmonella typhimurium = assay: Inhibitory effect of falcarindiol on S. typhimurium (optical density at 600nm, aerobic); type: cell-based; conditions: aerobic conditions, 20° C.
[4] = Effectiveness of falcarindiol as inhibitor versus pH and aerobic conditions; type: cell-based
[5] = Solubility of falcarindiol; type: physicochemical
Staphylococcus aureus = assay: Inhibitory effect of falcarindiol on S. aureus (optical density at 600nm, aerobic); type: cell-based; conditions: aerobic conditions, 20° C.

SMILES: C=CC(O)C#CC#CC(O)C=CCCCCCCC (stereo not shown) [falcarindiol]
- inactivation of L. monocytogenes under aerobic conditions (L. monocytogenes; aerobic): completely inactivated
- lag phase of L. monocytogenes under anaerobic conditions (L. monocytogenes; anaerobic): 15 h
- inhibition under aerobic versus anaerobic conditions (L. monocytogenes): much greater under aerobic conditions
- inhibition of C. botulinum (Clostridium botulinum): inhibited
- activation of mechanosensitive channels [1]: mechanosensitive channels were activated
- inhibition of E. coli (Escherichia coli): inactive
- stability to heating (activity) [2]: can be inactivated by heating
- LD50 [3]: about 100 mg/kg of body weight
- inhibition of S. typhimurium (Salmonella typhimurium): inactive
- activity under aerobic conditions ([4]; aerobic conditions): active under aerobic conditions
- pH (acidity) values at which it is effective ([4]; pH): above 5
- solubility in ethyl acetate [5]: readily soluble
- inhibition of S. aureus (Staphylococcus aureus): inhibited
